# Experimental data: publication PMC5806375, “Characterization and expression analysis of a newly identified glutathione S-transferase of the hard tick Haemaphysalis longicornis during blood-feeding” (Parasites & Vectors, 2018)
# Tests used:
# [1] = molecular target: T1, HlGST (recombinant HlGST, rHlGST) (Haemaphysalis longicornis, UniProt Q6JVN0); assay: absorbance at […] nm, Lineweaver-Burk plot; format: biochemical; conditions: 5 mM GSH, CDNB 0.125-2 mM, 100 mM Tris-HCl pH 7.5, 25 °C, 5% methanol; read-out: CDNB kinetic constant^a
# T1 construct: gene GST
# T1 sequence (Q6JVN0 1-223): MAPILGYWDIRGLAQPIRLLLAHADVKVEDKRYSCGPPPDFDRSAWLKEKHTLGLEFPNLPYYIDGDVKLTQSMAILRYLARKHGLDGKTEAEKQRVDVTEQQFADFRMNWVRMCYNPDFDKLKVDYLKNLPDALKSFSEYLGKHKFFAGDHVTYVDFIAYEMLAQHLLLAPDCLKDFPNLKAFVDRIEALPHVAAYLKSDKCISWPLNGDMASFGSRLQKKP
# [2] = molecular target: T2, HlGST2 (recombinant HlGST2, rHlGST2) (Haemaphysalis longicornis, UniProt A0A2Z6FA39); assay: absorbance at […] nm, Lineweaver-Burk plot; format: biochemical; conditions: 5 mM GSH, CDNB 0.125-2 mM, 100 mM Tris-HCl pH 7.5, 25 °C, 5% methanol; read-out: CDNB kinetic constant^a
# T2 construct: gene GST
# T2 sequence (A0A2Z6FA39 1-230): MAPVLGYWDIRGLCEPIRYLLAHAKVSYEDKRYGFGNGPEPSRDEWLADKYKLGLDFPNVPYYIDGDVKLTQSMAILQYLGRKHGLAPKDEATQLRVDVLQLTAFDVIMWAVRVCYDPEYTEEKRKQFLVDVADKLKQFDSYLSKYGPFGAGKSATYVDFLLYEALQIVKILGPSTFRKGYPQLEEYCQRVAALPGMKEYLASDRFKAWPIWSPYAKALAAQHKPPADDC
compound,measurement,setting,value
"O=[N+]([O-])c1ccc(Cl)c([N+](=O)[O-])c1 [CDNB, 1-chloro-2,4-dinitrobenzene]",Km,[1],820 ± 140 µM
same,Km,[2],610 ± 200 µM
